Assay results reported in US12410160B2 (Gilead Sciences, Inc., priority 2021, dated 2025).
Where two headings read alike, the source gives them in different places.

Legend:
HepG2 cells = assay: F1P Cell-Based Assay (EC50), 13C6-fructose-1-phosphate in HepG2 cells (cell culture medium or 50% human plasma); conditions: Homo sapiens
[1] = target: KHK-C expressed in NRK-52E cells (Homo sapiens (Human), UniProt P50053); assay: KHK-C Cell-based Assay (EC50), NRK CTG, fructose-mediated ATP-depletion
human OATP1B1 [2] = target: T1, human OATP1B1 (Homo sapiens (Human), UniProt Q9Y6L6); assay: In Vitro Inhibition Assessment with Human OATP1B1 Transporter; type: in vitro ADME; conditions: HEK293-OATP1B1 cells, probe substrate pravastatin
Procedure, shortened: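 HEK293-OATP1B1 and mock cells were preincubated 15 min with compound in HBSS. They were then coincubated 5 min with compound plus pravastatin (0.4% DMSO final), and intracellular substrate was quantified by LC-MS/MS. Mock-corrected uptake relative to solvent gave percentage activity, from which IC50 was fitted.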

human KHK-C = human KHK-C (Homo sapiens (Human), UniProt P50053); assay: KHK Biochemical Assay (IC50), ADP-Glo, KHK-C; conditions: average of at least two separate assays
Procedure, shortened: (§1)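 His-tagged enzyme expressed in BL21 (DE3), Ni-NTA purified. Compounds, serially diluted 1:3 in DMSO, pre-incubated 30 min with enzyme in 50 mM Hepes pH 7.4, 140 mM KCl, 5 mM MgCl2, 0.01% Triton-X, then ATP and fructose added; 4 h at room temperature. ADP formation read by ADP-Glo luminescence.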

human KHK-A = human KHK-A (Homo sapiens (Human), UniProt P50053); assay: KHK Biochemical Assay (IC50), ADP-Glo, KHK-A; conditions: average of at least two separate assays
Procedure, shortened: as §1

[3] = pKa analysis by capillary electrophoresis (pKa PRO Analyzer, co-solvent method); type: physicochemical; conditions: methanol/aqueous co-solvent buffers, co-solvent method (60% to 30% methanol buffers)
Procedure, shortened: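 Capillary electrophoresis by the co-solvent method, with 100 μM compound and 1% DMSO in 2 mM HCl or NaOH at 60% methanol.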

human OATP1B1 [4] = target: T1, human OATP1B1; assay: In Vitro Substrate Assessment with Human OATP1B1 Transporter; type: in vitro ADME; conditions: HEK293-OATP1B1 vs mock cells; substrate if uptake ≥2-fold of mock and decreased by ≥30% with known OATP inhibitor
Source text: In Vitro Substrate Assessment with Human OATP1B1 and OATP1B3 Transporters
The purpose of this assay was to assess whether test articles (TAs), were substrates for the hepatic uptake transporters organic anion transporting polypeptide (OATP) 1B1 (SLCO1B1) and 1B3 (SLCO1B3) using non-transfected (Mock) and transfected human embryonic kidney (HEK293) cells. […] On assay day, media were removed from the assay plates and cells were washed with Hanks' Balanced Salt Solution (HBSS Buffer) (Corning, Cat. #21-023-CV). Cells were preincubated with HBSS buffer with or without known OATP inhibitors for 30 minutes. […] The incubation period was 2 minutes. Cells were then washed three times with ice cold HBSS buffer and then were immediately extracted with methanol:water (70:30 v:v) containing internal standard labetolol (30 nM). The supernatants were evaporated to dryness on injection plates and reconstituted in 80% water containing 20% acetonitrile and 0.1% formic acid for analysis by liquid chromatography with tandem mass spectrometry (LC-MS-MS).
The rate of uptake into cells was determined by the following formula: Rate of uptake=(A*B)/(C*D)
• A: concentration of compound in cell lysate • B: volume of sample • C: Incubation time • D: millions of cells in sample
A TA was considered a substrate for OATP transporter if: (1) the rate of uptake in the transporter transfected cells was ≥2-fold of the rate of uptake in the mock cells; and (2) the rate of uptake in the transporter transfected cells was decreased by ≥30% in the presence of a known OATP inhibitor.

[5] = HepG2, HepG2 cells, 50% human plasma, read-out: F1P 50% HP EC50
[6] = HepG2, read-out: F1P 10% FBS EC50, HepG2 cells, cell culture medium (10% FBS)
[7] = pH range 1.7-11.2, read-out: 1st pKa

Sequence of human KHK-A (P50053 other isoform, or with tags, fused parts or gaps): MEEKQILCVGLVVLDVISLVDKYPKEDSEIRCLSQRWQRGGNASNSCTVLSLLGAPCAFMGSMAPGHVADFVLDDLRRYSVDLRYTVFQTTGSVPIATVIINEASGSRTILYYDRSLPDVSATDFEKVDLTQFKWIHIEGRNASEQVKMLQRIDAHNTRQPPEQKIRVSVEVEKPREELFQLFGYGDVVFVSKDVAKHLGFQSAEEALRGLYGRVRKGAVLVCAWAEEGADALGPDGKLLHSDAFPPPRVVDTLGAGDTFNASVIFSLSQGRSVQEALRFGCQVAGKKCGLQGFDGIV
T1 sequence (Q9Y6L6 whole entry): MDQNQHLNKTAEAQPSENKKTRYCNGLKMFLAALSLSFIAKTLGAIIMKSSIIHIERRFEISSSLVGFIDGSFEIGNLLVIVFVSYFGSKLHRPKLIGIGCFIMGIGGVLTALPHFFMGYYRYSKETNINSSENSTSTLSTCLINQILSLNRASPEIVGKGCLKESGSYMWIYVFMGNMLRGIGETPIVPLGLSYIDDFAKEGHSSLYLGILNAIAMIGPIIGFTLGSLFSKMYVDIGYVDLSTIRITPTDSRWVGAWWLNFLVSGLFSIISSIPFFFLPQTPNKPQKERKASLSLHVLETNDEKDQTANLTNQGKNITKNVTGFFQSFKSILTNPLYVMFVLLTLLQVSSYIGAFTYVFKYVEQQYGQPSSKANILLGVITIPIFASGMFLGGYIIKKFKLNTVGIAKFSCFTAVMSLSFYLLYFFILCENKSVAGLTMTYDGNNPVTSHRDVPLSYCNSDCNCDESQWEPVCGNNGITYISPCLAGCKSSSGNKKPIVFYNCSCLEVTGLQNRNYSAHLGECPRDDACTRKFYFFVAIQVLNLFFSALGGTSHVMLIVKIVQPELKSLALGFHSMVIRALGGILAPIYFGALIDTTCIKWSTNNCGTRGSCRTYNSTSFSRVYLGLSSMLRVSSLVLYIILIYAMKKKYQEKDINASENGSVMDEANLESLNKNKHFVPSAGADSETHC
Sequence of KHK-C expressed in NRK-52E cells (P50053 whole entry): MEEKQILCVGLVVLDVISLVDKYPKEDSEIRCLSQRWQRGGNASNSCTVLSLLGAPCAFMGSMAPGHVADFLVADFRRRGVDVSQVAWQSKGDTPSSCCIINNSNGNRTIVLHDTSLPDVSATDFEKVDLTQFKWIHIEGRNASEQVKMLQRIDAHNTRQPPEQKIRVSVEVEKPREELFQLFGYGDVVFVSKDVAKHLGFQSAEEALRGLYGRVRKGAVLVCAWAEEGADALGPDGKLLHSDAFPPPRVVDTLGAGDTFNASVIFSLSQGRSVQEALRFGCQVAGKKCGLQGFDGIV
Sequence of human KHK-C (P50053 whole entry): as above

Structure (SMILES)	EC50 (HepG2 cells; [5]) [nM]	EC50 (HepG2 cells; [6]) [nM]	EC50 [1] [nM]	IC50 (human OATP1B1 [2]) [µM]	IC50 (human KHK-C) [nM]	IC50 (human KHK-A) [nM]	pKa [3, 7]	EC50 (HepG2 cells; HepG2, read-out: F1P 10% FBS EC50) [nM]	EC50 (HepG2 cells; HepG2, read-out: F1P 50% HP EC50) [nM]	IC50 (human KHK-C; ADP-Glo) [nM]	OATP1B1 Substrate (human OATP1B1 [4])	pKa ([3]; pH range 1.7-11.2, read-out: 2nd pKa)
COc1ccc(-c2nc(N3C[C@@H](O)[C@@H]3C)nc3c2CCC3(F)F)cc1[S@@](C)(=N)=O (single isomer, unassigned) [Example 495]	2.3	1.1	16	> 40	1.5	0.7	2.5	–	–	–	–	–
NC1(c2ccc(-c3nc(N4CC[C@@H]4C(F)F)nc4c3CCC4(F)F)cc2)COC1 (single isomer, unassigned) [Example 687]	–	–	6.2	6.55	1.2	2.8	6	7.6	14.6	–	–	–
C[C@H]1[C@H](O)CN1c1nc(-c2ccc3c(c2)OCCNC3=O)c2c(n1)C(F)(F)CC2 [Example 166, 8-(7,7-difluoro-2-((2S,3R)-3-hydroxy-2-methylazetidin-1-yl)-6,7-dihydro-5H-cyclopenta[d]pyrimidin-4-yl)-3,4-dihydrobenzo[f][1,4]oxazepin-5(2H)-one]	47.3	36.7	39.7	1.74	–	–	–	–	–	5	YES	–
C[C@H]1[C@H](O)CN1c1nc2c(c(-c3cccc(S(N)(=O)=O)c3)n1)CCC2 [Example 209, 3-[2-[(2S,3R)-3-hydroxy-2-methyl-azetidin-1-yl]-6,7-dihydro-5H-cyclopenta[d]pyrimidin-4-yl]benzenesulfonamide]	–	–	249	5.57	–	–	3.54	–	–	–	YES	9.45
C[C@H]1[C@H](O)CN1c1nc(-c2ccc3c(c2)OC[C@@H]3NS(C)(=O)=O)c2c(n1)C(F)(F)CC2 [Example 466, N—((R)-6-(7,7-difluoro-2-((2S,3R)-3-hydroxy-2-methylazetidin-1-yl)-6,7-dihydro-5H-cyclopenta[d]pyrimidin-4-yl)-2,3-dihydrobenzofuran-3-yl)methanesulfonamide]	20.5	7.3	11.4	3.01	0.5	4	10.3	–	–	–	–	–
NC1(c2ccc(-c3nc(N4CC[C@@H]4CF)nc4c3CCC4(F)F)cc2)COC1 [Example 471, (R)-3-(4-(7,7-difluoro-2-(2-(fluoromethyl)azetidin-1-yl)-6,7-dihydro-5H-cyclopenta[d]pyrimidin-4-yl)phenyl)oxetan-3-amine]	13.2	8.4	6.4	23.3	2	7	6.1	–	–	–	–	–
C[C@H]1[C@H](O)CN1c1nc(-c2ccc(C3(N)CS(=O)(=O)C3)cc2)c2c(n1)C(F)(F)CC2 [Example 491]	26.2	31.9	35.8	36	2	24.2	4.5	–	–	–	–	–
NC1(c2ccc(-c3nc(N4CC[C@@H]4C(F)(F)F)nc4c3CCC4(F)F)cc2)COC1 [Example 696, 3-[4-[7,7-difluoro-2-[(2R)-2-(trifluoromethyl)azetidin-1-yl]-5,6-dihydrocyclopenta[d]pyrimidin-4-yl]phenyl]oxetan-3-amine]	6.8	1.7	5.7	5.41	0.5	1	6.3	–	–	–	–	–
C[C@H]1CCN1c1nc(N2C[C@@H]3[C@@H](CC(=O)O)[C@@H]3C2)cc(C(F)(F)F)n1 [Reference Compound 1, reference compound]	–	–	–	1.19	–	–	–	–	–	–	YES	–
C[C@H]1CCN1c1nc(N2CC[C@H](CC(=O)O)C2)cc(C(F)(F)F)c1C#N [Reference Compound 2, 2-((R)-1-(5-cyano-6-((S)-2-methylazetidin-1-yl)-4-(trifluoromethyl)pyridin-2-yl)pyrrolidin-3-yl)acetic acid, reference compound]	–	–	–	0.267	–	–	–	–	–	–	YES	–
C[C@H]1CCN1c1nc(N2C[C@@H]3[C@@H](CC(=O)O)[C@@H]3C2)c2c(n1)C(F)(F)CC2 [Reference Compound 5, reference compound]	–	–	–	0.72	–	–	–	–	–	–	YES	–
C[C@H]1CCN1c1nc(N2C[C@@H]3[C@@H](CC(=O)O)[C@@H]3C2)c2c(n1)C(F)(F)CCC2 [Reference Compound 6, reference compound]	–	–	–	0.96	–	–	–	–	–	–	YES	–
